Data taken from patent publication US20170095524A1, “METHODS FOR MODULATING CANCER CELLS AND STEM CELLS” (The Scripps Research Institute, priority 2014, published 2017).

How the values were obtained:
LIN28 = experiment: Western blot of LIN28 levels in P19 cells treated with IGF1R and calpain inhibitors; assay type: cell-based; settings: acute treatment (~12 hrs)
Excerpt: FIGS. 4A-4B show regulation of LIN28 levels by RBM3, IGF1R, and calpain. (A) Western blot showing the effect of RBM3 knock-down (siRNA) on LIN28 levels in P19 cells treated at the neurosphere stage with (or without) retinoic acid (RA) to induce neural differentiation. RBM3 knock-down increases LIN28 and blocks the ability of RA to decrease LIN28. (B) Western blots showing reduction of LIN28 in P19 cells following acute treatment (˜12 hrs) with inhibitors of IGF1R and calpain (each of which increases the expression of the dephosphorylated form of RBM3). […] HDAC is a loading control.
FIGS. 7A-7D show results from additional studies of reducing LIN28 levels via synergistic dual inhibitor strategies. (A & B) Graphs of changes in RBM3 and LIN28 expression in P19 cells treated with the IGF1R inhibitor PPP (10 nM), the calpain inhibitor calpeptin (Cpep, 50 μM), and a combination of PPP plus Cpep (A: n=10-14; B: n=20-24). (C) (top panels) Example of Westerns of LIN28 in P19 cells exposed to PPP, Cpep, and PPP+Cpep; (bottom panels) Example of Westerns of LIN28 and RBM3 in samples from P19 cells treated in triplicate with control and Cpep+PPP conditions. (D) Fold change in let-7 family miRNAs and miR-21 in P19 cells treated with PPP+Cpep as measured by qRT-PCR (n=4). All treatments were for 36 hours. […]

RBM3 = experiment: 2D Western blot of RBM3 phosphorylation forms in P19 cells after calpain inhibition; assay type: cell-based
Excerpt: (Top) 2D Western blot of RBM3 in vehicle-treated (DMSO) P19 cells. Red arrows point to exogenously expressed mutant of RBM3 (A4F) with 4 C-term Y to F mutations, and to two phosphorylated endogenous isoforms of RBM3 that differ by a single arginine (Arg). […] A basic spot not present in the control condition appears that corresponds to the pI of dephosphorylated Arg+RBM3, the form of RBM3 that preferentially associates with pre-miRNAs. We further observed that calpain inhibition rescues expression of dephosphorylated RBM3 in pluripotent cells. Calpains are Ca^++-activated cysteine proteases that regulate diverse cellular processes. Calpain's role in pluripotent and cancerous cells prompted us to test whether it regulates the expression of the dephosphorylated form of RBM3 in pluripotent cells (and accounts for the difficulty in expressing non-phosphorylatable mutants in these cells).

Row | Structure (SMILES) | LIN28 levels (Western blot) (LIN28; PPP 10 nM) | LIN28 levels (Western blot) (LIN28; Cpep 50 μM) | RBM3 pI distribution (2D Western); basic spot corresponding to dephosphorylated Arg+RBM3 appears (RBM3; P19 cells incubated with calpain inhibitor vs DMSO vehicle) | levels of a non-phosphorylatable mutant of RBM3 (RBM3; pluripotent P19 cells) | levels of the endogenous dephosphorylated form of RBM3 that binds pre-miRNAs (dephos Arg+) (RBM3; pluripotent P19 cells)
1 | COc1cc([C@@H]2c3cc4c(cc3[C@H](O)[C@H]3COC(=O)[C@@H]23)OCO4)cc(OC)c1OC [picropodophyllin] | reduces LIN28 levels | – | – | – | –
2 | CCCC[C@@H](C=O)NC(=O)[C@H](CC(C)C)NC(=O)OCc1ccccc1 [calpeptin] | – | reduces LIN28 levels | shift in RBM3 pI distribution | increased | increased
